Test results as given in paper PMC8811960, “A Novel 2-Carbon-Linked Dimeric Artemisinin With Potent Antileukemic Activity and Favorable Pharmacology” (Frontiers in Oncology, 2022).

How the values were obtained:
[1] = system: HL60; assay: alamarBlue growth inhibition, HL60; assay type: cell-based; settings: Homo sapiens, HL-60, HL60, 48h, mean of 2 independent assays ± SD
Procedure: (§1) Cytotoxicity was assessed using alamarBlue assays (Life Technologies, Grand Island, NY) following manufacturer’s guidelines. Cell death was verified by Annexin V/7-aminoactinomycin D (7AAD) staining (BioLegend, San Diego, CA) per manufacturer’s guidelines.

[2] = system: MCL1; assay: Western blot for MCL1; assay type: cell-based, human; settings: MOLM14, 200 nM, 18h, similar results in MV4;11 and ML2
Procedure: Cells were pre-treated with […] ROS detection reagent 5-(and 6-)-chloromethyl-2’,7’-dichlorodihydrofluorescein diacetate (CM-H2DCFDA, Life Technologies) for 30 min, followed by the iron chelator deferoxamine mesylate (DFO; 11 mM) for 60 min. Cells were then treated with ART631 (200 nM) or DMSO control for 18h, with subsequent analysis by flow cytometry. Western blotting and quantitative reverse transcription PCR (qRT-PCR) to assess for molecular markers of ROS-mediated apoptosis were performed as previously described ([20]).
Figure 4 ART631 elevated ROS and CHOP levels and reduced MCL1 expression in MOLM14 AML cells. (A) MOLM14 AML cells were pre-treated with ROS detection reagent CM-H2DCFDA ([…]) for 30 min, pre-treated with deferoxamine mesylate (DFO; 11 mM) for 60 min, and then treated with ART631 (200 nM) or DMSO control for 18h. They were then analyzed by flow cytometry. Graph represents %CM-H2DCFDA fluorescence compared to vehicle (DMSO) control treated cells. Error bars represent SD from 3 independent experiments. (B) MOLM14 AML cells were treated for 18h with vehicle, AS (10 uM), ART838 (200 nM), ART631 (200 nM), cytarabine (AraC; 150 nM), or SOR (5 uM). Protein was isolated and western blotted for MCL1, BCL2, CHOP, and β-actin. (C) MOLM14 cells were treated as in (B) for 18h, total RNA isolated, cDNA synthesized, and SYBR Green qRT-PCR performed in triplicates. […]

[3] = system: THP1; assay: alamarBlue growth inhibition, THP1; assay type: cell-based; settings: Homo sapiens, THP-1, THP1, 48h, mean of 2 independent assays ± SD
Procedure: as §1

[4] = system: ML2; assay: alamarBlue growth inhibition, ML2; assay type: cell-based; settings: Homo sapiens, ML-2, ML2, 48h, mean of 2 independent assays ± SD
Procedure: as §1

[5] = Phase I microsomal stability, human liver microsomes; assay type: in vitro ADME
Procedure: (§2) The metabolic stability of ART631 was assessed in human and mouse plasma and liver microsomes (LM). For phase I microsomal stability assays, analogs (10 µM in <1% acetonitrile) were incubated in PBS containing liver microsomes, with or without cofactors ([22]). Microsomal controls (without cofactors) were used to determine non-enzymatic degradation. All experiments were incubated at 37°C for 1h and performed in duplicate. Reactions were stopped with acetonitrile and analyzed as described below.
ART631 was extracted from 25 µL plasma or microsomal solutions with 100 µL acetonitrile containing artemisinin (i.e. the natural product) as internal standard. […] Mobile phase A was ammonium acetate (2mM) containing 0.1% formic acid, and mobile phase B was acetonitrile containing 0.1% formic acid. The gradient started with mobile phase B and was held at 40% for 0.5 minutes with a flow rate of 0.4 mL/min, then increased to 100% over 1.5 minutes and held for 2.0 minutes, and finally returned back to 40% mobile phase B and allowed to equilibrate for 2.0 minutes. An AB Sciex 5500 triple quadrupole mass spectrometer operated in positive electrospray ionization mode was used for the detection of ART631. For stability studies, the ratio of ART631 to the internal standard, artemisinin, was assessed. Calibration curves for ART631 were computed using the ratio of the peak area to that of the internal standard by using a quadratic equation with a 1/x^2 weighting function over the range of 8-1585 nM with dilutions of up to 1:10 (v/v).

[6] = system: U937; assay: alamarBlue growth inhibition, U937; assay type: cell-based; settings: Homo sapiens, U-937, U937, 48h, mean of 2 independent assays ± SD
Procedure: as §1

[7] = system: K562; assay: alamarBlue growth inhibition, K562; assay type: cell-based; settings: Homo sapiens, K562, 48h, mean of 2 independent assays ± SD
Procedure: as §1

[8] = Stability in plasma; assay type: in vitro ADME, human and mouse; settings: species not given
Procedure: as §2
We compared the in vitro stability of ART576 and ART631 ( Table 3 ). ART576 was stable in plasma (<10% degradation), but unstable with degradation of >70% in human liver microsomes with co-factors and >90% in mouse liver microsomes with co-factors ( Table 3 ).

Compound: C=CCO/N=C(/C[C@H]1O[C@@H]2O[C@@]3(C)CC[C@H]4[C@H](C)CC[C@@H]([C@H]1C)[C@@]24OO3)[C@H]1O[C@@H]2O[C@@]3(C)CC[C@H]4[C@H](C)CC[C@@H]([C@H]1C)[C@@]24OO3 [ART631]
- IC50 [1]: 41 ± 9 nM
- MCL1 protein expression [2]: decreased
- IC50 [3]: 42 ± 2 nM
- IC50 [4]: 34 ± 4 nM
- percentage remaining, Phase I Metabolism HLM NADPH(+) ([5]; 10 µM, 37°C, 1h, with cofactors): 60%
- percentage remaining, Phase I Metabolism HLM NADPH(-) ([5]; 10 µM, 37°C, 1h, without cofactors): 86%
- degradation in human liver microsomes with co-factors ([5]; NADPH-dependent phase I metabolism): ~ 30%
- IC50 [6]: 20 ± 5 nM
- IC50 [7]: > 1000 nM
- degradation in plasma [8]: > 40%
